Measured values published in patent US8987256B2, “Oxo-heterocyclic substituted carboxylic acid derivatives and the use thereof” (Bayer Intellectual Property GmbH, priority 2008, dated 2015).

Experiments:
saphenous artery rings = assay: Vasorelaxant effect in vitro (phenylephrine-contracted artery rings); parameters: species or system Rabbits; conditions: Oryctolagus cuniculus, concentration reducing phenylephrine-induced contraction by 50%
Experimental: Rabbits are anesthetized and sacrificed by intravenous injection of thiopental sodium (about 50 mg/kg) and exsanguinated. The saphenous artery is removed and divided into rings 3 mm wide. The rings are mounted singly on in each case a pair of triangular hooks open at the end and made of 0.3 mm-thick special wire (Remanium®). Each ring is placed under an initial tension in 5 ml organ baths with Krebs-Henseleit solution which is at 37° C., is gassed with carbogen and has the following composition: NaCl 119 mM; KCl 4.8 mM; CaCl2×2H2O 1 mM; MgSO4×7H2O 1.4 mM; KH2PO4 1.2 mM; NaHCO3 25 mM; glucose 10 mM; bovine serum albumin 0.001%. The force of contraction is detected with Statham UC2 cells, amplified and digitized via A/D converters (DAS-1802 HC, Keithley Instruments, Munich) and recorded in parallel on chart recorders. Contractions are induced by addition of phenylephrine.
After several (generally 4) control cycles, the substance to be investigated is added in each further run in increasing dosage, and the level of the contraction achieved under the influence of the test substance is compared with the level of the contraction reached in the last preceding run. The concentration necessary to reduce the contraction reached in the preceding control by 50% is calculated from this (IC50). The standard application volume is 5 μl. The proportion of DMSO in the bath solution corresponds to 0.1%.

[1] = target: T1, recombinant guanylate cyclase reporter cell line (Rattus norvegicus, UniProt P20595); assay: sGC-activating activity in the CHO reporter cell in vitro; format: cell-based
T1 construct: expressed in transfected cells; host or cells: CHO reporter cell line
T1 sequence (P20595 1-619): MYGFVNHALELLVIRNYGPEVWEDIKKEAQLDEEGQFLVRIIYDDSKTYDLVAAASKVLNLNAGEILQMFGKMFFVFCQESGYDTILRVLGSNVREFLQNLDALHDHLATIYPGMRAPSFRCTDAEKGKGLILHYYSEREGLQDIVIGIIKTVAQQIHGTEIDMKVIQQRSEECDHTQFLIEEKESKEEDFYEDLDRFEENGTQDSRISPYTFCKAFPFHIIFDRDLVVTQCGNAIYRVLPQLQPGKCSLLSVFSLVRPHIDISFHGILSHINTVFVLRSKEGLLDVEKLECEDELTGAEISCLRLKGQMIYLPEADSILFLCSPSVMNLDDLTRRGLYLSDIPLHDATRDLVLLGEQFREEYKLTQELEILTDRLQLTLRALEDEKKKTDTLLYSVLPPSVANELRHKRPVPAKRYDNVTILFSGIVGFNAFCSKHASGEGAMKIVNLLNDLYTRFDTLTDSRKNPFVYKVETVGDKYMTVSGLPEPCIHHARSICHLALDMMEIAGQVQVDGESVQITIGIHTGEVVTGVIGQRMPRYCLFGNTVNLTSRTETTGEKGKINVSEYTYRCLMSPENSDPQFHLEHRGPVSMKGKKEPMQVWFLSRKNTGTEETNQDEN
T1 sequence (P19686 1-690 partner): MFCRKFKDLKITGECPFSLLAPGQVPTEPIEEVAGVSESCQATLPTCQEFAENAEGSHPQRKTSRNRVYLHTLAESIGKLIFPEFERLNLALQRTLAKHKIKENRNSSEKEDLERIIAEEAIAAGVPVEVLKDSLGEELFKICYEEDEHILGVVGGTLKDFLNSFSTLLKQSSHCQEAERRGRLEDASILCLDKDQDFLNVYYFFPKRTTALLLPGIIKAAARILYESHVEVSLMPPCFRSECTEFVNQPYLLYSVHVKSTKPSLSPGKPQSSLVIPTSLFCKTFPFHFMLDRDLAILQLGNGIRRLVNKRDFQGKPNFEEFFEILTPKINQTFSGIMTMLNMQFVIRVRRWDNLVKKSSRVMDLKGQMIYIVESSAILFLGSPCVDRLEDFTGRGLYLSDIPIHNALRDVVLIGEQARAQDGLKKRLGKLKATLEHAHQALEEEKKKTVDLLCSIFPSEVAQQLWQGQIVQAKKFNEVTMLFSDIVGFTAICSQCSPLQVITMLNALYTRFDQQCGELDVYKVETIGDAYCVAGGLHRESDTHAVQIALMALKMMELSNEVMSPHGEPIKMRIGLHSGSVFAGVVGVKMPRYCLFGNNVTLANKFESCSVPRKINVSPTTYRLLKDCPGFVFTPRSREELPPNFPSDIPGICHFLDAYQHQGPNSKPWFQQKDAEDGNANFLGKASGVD
Experimental: The cellular action of the compounds according to the invention is determined at a recombinant guanylate cyclase reporter cell line, as described in F. Wunder et al., Anal. Biochem. 339, 104-112 (2005).

IC50 (saphenous artery rings): 0.12 µM
MEC (minimum effective concentration), sGC-activating activity in the CHO reporter cell [1]: 10 nM
SMILES: O=C(O)CCc1cccc(NC(=O)C(c2ccc(CN3N=C(c4ccccc4)OCC3=O)cc2)C2CCCC2)c1 (single isomer, unassigned) [Example 103, 3-{3-[(Cyclopentyl{4-[(5-oxo-2-phenyl-5,6-dihydro-4H-1,3,4-oxadiazin-4-yl)methyl]phenyl}acetyl)amino]phenyl}propanoic acid]
